Results taken from paper PMC9916969 (International Journal of Molecular Sciences, 2023).
Several values for one entry are separate records, joined by “and”; a condition that tells them apart may be missing. Identical values can stand only once.

Tests used:
[1] = system: porcine liver CES; experiment: In vitro CES inhibition (4-NPA substrate); format: biochemical; conditions: compound 20 µM, n.a. = not active
Description: (§1) Assessment of the esterase profile of new potential anti-AD molecules enables the estimation of both the primary pharmacological effects of the tested compounds—their inhibition of AChE and BChE—and their possible unwanted side effect—inhibition of CES, which hydrolyzes numerous ester-containing drugs. For the esterase profile evaluation, human erythrocyte AChE, equine serum BChE, and porcine liver CES were used. These sources of BChE and CES were employed because of their relatively low cost, high sequence identity to human enzymes, and the exploratory character of this work.
(§2) Chromophore absorbances were measured with a FLUOStar Optima microplate reader (BMG Labtech, Ortenberg, Germany). […] Initially, we used a single concentration of 20 µM for all compounds.

[2] = target: T1, EeAChE PAS (Electrophorus electricus, UniProt O42275); format: binding; conditions: compound 20 µM; EeAChE 7 µM; propidium iodide 8 µM
T1 construct: The enzyme was electric eel AChE (EeAChE type VI-S, lyophilized powder, Sigma-Aldrich); purchased Sigma-Aldrich type VI-S; host or cells: electric eel (tissue-derived)
T1 sequence (O42275 24-633): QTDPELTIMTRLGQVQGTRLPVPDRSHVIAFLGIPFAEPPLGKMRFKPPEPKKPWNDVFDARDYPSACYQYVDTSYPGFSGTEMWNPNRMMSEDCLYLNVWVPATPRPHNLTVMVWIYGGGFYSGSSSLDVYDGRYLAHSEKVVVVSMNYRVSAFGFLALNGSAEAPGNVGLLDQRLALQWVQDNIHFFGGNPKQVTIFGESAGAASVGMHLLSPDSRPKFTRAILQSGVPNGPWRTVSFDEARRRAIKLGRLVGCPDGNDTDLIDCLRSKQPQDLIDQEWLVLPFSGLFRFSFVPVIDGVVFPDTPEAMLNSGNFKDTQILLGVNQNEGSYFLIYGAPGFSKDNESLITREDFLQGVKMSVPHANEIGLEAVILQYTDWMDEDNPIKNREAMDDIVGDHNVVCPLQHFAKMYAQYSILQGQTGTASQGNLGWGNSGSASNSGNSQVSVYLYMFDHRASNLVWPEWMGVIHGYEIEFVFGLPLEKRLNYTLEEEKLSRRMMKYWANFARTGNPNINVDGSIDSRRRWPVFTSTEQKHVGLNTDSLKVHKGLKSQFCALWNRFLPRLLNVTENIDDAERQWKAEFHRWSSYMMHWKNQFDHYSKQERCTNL
Description: This method is widely used as a screening approach to assess the potential ability of compounds to block AChE-induced β-amyloid aggregation. This is because when the compounds bind to the AChE PAS, they prevent the binding of β-amyloid, thereby inhibiting its aggregation.
The enzyme was electric eel AChE (EeAChE type VI-S, lyophilized powder, Sigma-Aldrich). We selected this source of AChE for consistency with our other reports and because of the purity, specific activity, and lower cost compared to human AChE.
Propidium iodide (final concentration 8 μM) was then added for a further 15 min incubation, and the fluorescence spectrum was taken (530 nm excitation and 600 nm emission) using a FLUOStar Optima microplate reader. The same concentration of propidium iodide in the Tris buffer was used as the blank. Triplicate determinations were recorded and the results were calculated via the following equation:% Displacement = 100 − (IFAChE+ Propidium + inhibitor/IFAChE + Propidium) × 100, where IFAChE + Propidium = fluorescence intensity of propidium iodide associated with AChE in the absence of the test compound (taken as 100%), and IFAChE + Propidium + inhibitor = fluorescence intensity of propidium iodide associated with AChE in the presence of the test compound.

[3] = ABTS radical cation scavenging assay; design: key to ABTS^•+ Scavenging Activity, TEAC: TEAC: ratio of compound slope to Trolox slope (Trolox equivalents); conditions: 1 h incubation; for IC50: 50% reduction of ABTS radical cation; for ABTS^•+ Scavenging Activity, TEAC: Trolox equivalent, n.a. = not active
Description: In the ABTS assay, the dark-green ABTS cation-radical (ABTS^•+) is quenched by interaction with AOs. The consequent decrease in absorbance is followed spectrophotometrically per the previously described method.
Radical scavenging activity of the compounds was assessed using the ABTS radical cation (ABTS^•+) decolorization assay with some modifications. ABTS (2,2′-azinobis-(3-ethylbenzothiazoline-6-sulfonic acid) was purchased from Tokyo Chemical Industry Co., Ltd. (Tokyo, Japan); potassium persulfate (dipotassium peroxodisulfate), Trolox (6-hydroxy-2,5,7,8-tetramethylchroman-2-carboxylic acid), and HPLC-grade ethanol and DMSO were obtained from Sigma-Aldrich (Saint Louis, MO, USA). Aqueous solutions were prepared using deionized water. All tested compounds were dissolved in DMSO.
The solution of cation radical ABTS^•+ was produced by incubation of an aqueous solution of 7 mM ABTS and 2.45 mM potassium persulfate solution in equal quantities for 12–16 h at room temperature in the dark. Radical scavenging capacity of the compounds was analyzed by mixing 10 μL of compound with 240 μL of ABTS^•+ working solution in ethanol (100 μM final concentration). The reaction was monitored for an hour at 30 °C with an interval of 10 min. Data are given for 1 h of incubation of compounds with ABTS^•+. The reduction in absorbance was measured spectrophotometrically at 734 nm using an xMark microplate UV/VIS spectrophotometer (Bio-Rad, Hercules, CA, USA). Ethanol blanks were run in each assay. Values were obtained from five replicates of each sample and three independent experiments.
The standard AO Trolox was used as a reference compound. AO capacity as Trolox equivalent (TEAC) values was determined as the ratio between the slopes obtained from the linear correlation of the ABTS radical absorbance with the concentrations of tested compounds and Trolox. Ascorbic acid was used as a positive control. […]. The compounds were tested in the concentration range of 0.5–100 µM.

[4] = target: T2, equine serum BChE (Equus caballus, UniProt P81908); experiment: biochemical; conditions: mean ± SEM, n = 3, read-out: Inhibitory activity against BChE, IC50
T2 construct: human erythrocyte AChE, equine serum BChE, and porcine liver CES were used; purchased Sigma-Aldrich; host or cells: equine serum (tissue-derived)
T2 sequence (P81908 whole entry): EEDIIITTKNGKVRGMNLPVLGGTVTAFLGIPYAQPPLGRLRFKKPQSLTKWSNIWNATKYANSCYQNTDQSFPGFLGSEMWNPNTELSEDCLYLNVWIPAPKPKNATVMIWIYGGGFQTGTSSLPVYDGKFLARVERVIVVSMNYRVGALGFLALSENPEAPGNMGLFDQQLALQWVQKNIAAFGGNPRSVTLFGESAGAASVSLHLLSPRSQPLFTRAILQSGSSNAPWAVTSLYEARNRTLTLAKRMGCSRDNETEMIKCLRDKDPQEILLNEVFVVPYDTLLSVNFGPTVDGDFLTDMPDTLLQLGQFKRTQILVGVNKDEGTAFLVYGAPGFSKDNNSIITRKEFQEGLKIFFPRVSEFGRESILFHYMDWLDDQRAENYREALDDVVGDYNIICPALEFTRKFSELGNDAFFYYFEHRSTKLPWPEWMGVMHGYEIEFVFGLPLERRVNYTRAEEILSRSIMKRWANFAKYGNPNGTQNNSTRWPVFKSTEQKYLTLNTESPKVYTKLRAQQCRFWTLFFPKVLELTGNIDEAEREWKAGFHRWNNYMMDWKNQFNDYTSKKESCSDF
Description: as §1, §2

[5] = target: β-amyloid (1–42) (Aβ42) (Homo sapiens, UniProt P05067); experiment: Inhibition of Aβ42 self-aggregation (thioflavin T); format: biochemical; conditions: Aβ42 50 µM; compound 100 µM; 24 h, 37 °C; thioflavin T; read-out: Inhibition of Aβ42 Self-Aggregation
β-amyloid (1–42) (Aβ42), sequence (P05067 672-713 limits assumed): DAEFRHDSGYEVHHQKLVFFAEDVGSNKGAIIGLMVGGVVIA
Description: The inhibitory activity of tested hybrids against the self-aggregation of Aβ42 was determined in vitro using the thioflavin T (ThT) fluorimetric assay. According to [84], the ThT test is ideal for preliminary screening of inhibitors of Aβ42 self-aggregation, as it enables the quantitative testing of large numbers of compounds within a relatively short time.
The influence of the inhibitory effect of the test compounds toward Aβ42 self-aggregation was determined using the thioflavin T (ThT) fluorescence method with minor modifications. This assay is based on a specific interaction between the fluorescent dye thioflavin T that binds to the β-sheets of assembled amyloid fibrils leading to a significant increase in fluorescence signal. Therefore, the decrease in ThT fluorescence correlates with the ability of the studied compounds to inhibit the formation of amyloid aggregates.
One mg of lyophilized HFIP-pretreated Aβ42 from BACHEM (Bubendorf, Switzerland) was dissolved in DMSO to obtain a stable initial solution ([Aβ42] = 500 μM); then it was aliquoted and stored at −20 °C.
For the measurement of Aβ42 self-aggregation and amyloid fibril inhibition studies by the tested compounds, aliquots of 500 μM Aβ42 stock solution were diluted in 215 mM Na-phosphate buffer pH = 8.0 to a final concentration of 50 μM Aβ42. Then the samples were incubated for 24 h at 37 °C without stirring in the absence (base level of Aβ42 self-aggregation, control) or presence of the test compounds. Myricetin and propidium iodide were used as reference compounds (positive controls). All compounds were used in a concentration of 100 µM. To quantify Aβ42 fibril formation, after incubation, 5 μM ThT in 50 mM glycine-NaOH buffer pH 8.5 was added to the solutions to a final concentration of 4 μM ThT and the fluorescence was measured at 440 nm (excitation) and 485 nm (emission). Analyses were performed with a FLUOStar Optima microplate reader (LabTech, Ortenberg, Germany). The blanks consisted of 215 mM Na-phosphate buffer, pH = 8.0, 20% (v/v) DMSO or test compounds, respectively. Each assay was run in triplicate.

## Oc1ccccc1/C=N/CCCCCCCCNc1c2c(nc3ccccc13)CCCC2 [10c]
[1]
  Inhibitory activity against CES, inhibition at 20 µM: 23.0 ± 0.3%
[2]
  Propidium Displacement from EeAChE PAS: 19.8 ± 1.7%
[3]
  IC50: 34.2 ± 1.8 µM
  ABTS^•+ Scavenging Activity, TEAC: 0.42 ± 0.04
[4]
  IC50: 15.6 ± 1.2 nM
[5]
  inhibition at 100 µM: 80.1 ± 5.6%

## O=C(NCCCCCCNc1c2c(nc3ccccc13)CCCC2)c1cc(F)c(F)cc1O [7b]
[1]
  Inhibitory activity against CES, inhibition at 20 µM: 7.1 ± 1.0%
[2]
  Propidium Displacement from EeAChE PAS: 12.2 ± 0.9%
[3]
  IC50: > 200 µM
  ABTS^•+ Scavenging Activity, TEAC: 0.030 ± 0.001
[4]
  IC50: 31.7 ± 3 nM
[5]
  inhibition at 100 µM: 24.1 ± 2.1%

## O=C(NCCCCCCNc1c2c(nc3ccccc13)CCCC2)c1ccccc1O [5b]
[1]
  Inhibitory activity against CES, inhibition at 20 µM: 19.5 ± 0.9%
[2]
  Propidium Displacement from EeAChE PAS: 12.6 ± 1.0%
[3]
  IC50: 21.3 ± 1.5 µM
  ABTS^•+ Scavenging Activity, TEAC: 0.93 and 0.90 ± 0.05
[4]
  IC50: 11.9 ± 0.1 nM
[5]
  inhibition at 100 µM: 41.5 ± 2.9%

## O=C(NCCCCCCCCNc1c2c(nc3ccccc13)CCCC2)c1cc(F)c(F)cc1O [7c]
[1]
  Inhibitory activity against CES, inhibition at 20 µM: 8.6 ± 0.7%
[2]
  Propidium Displacement from EeAChE PAS: 13.6 ± 1.0%
[3]
  IC50: > 200 µM
  ABTS^•+ Scavenging Activity, TEAC: 0.040 ± 0.002
[4]
  IC50: 22.6 ± 1.8 nM
[5]
  inhibition at 100 µM: 37.2 ± 2.9%
